In patent publication US12268690B2, “Treatments for mutations in acute myeloid leukemia” (OREGON HEALTH & SCIENCE UNIVERSITY, priority 2018, dated 2025):

Test system: freshly isolated mononuclear cells from AML samples
Assay: Ex vivo functional drug screen (MTS viability, AUC) on primary AML samples, compared by mutation or clinical group
Format: cell-based, human
Conditions: for correlation of mutation with drug sensitivity: mutation of RUNX1
Source text: This panel contained graded concentrations of a drugs with activity against two-thirds of the tyrosine kinome as well as other non-tyrosine kinase pathways, including MAPKs, PI3K/AKT/mTOR, AMPK, ATM, Aurora kinases, CAMKs, CDKs, GSK3a/b, IκK, PKA, PKC, PLK1, and RAF. In addition, the library contained small molecule inhibitors with activity against the BCL2 family, BRD4, Hedgehog, HSP90, NOTCH/gamma-secretase, proteasome, survivin, STAT3, and WNT/beta-catenin. Drug sensitivity patterns were analyzed with respect to clinical and genetic features of tumors. We compared the average area-under-the curve (AUC) values for each drug between the de novo and transformed samples via a series of single factor ANOVAs. […] In addition, we analyzed the concordance of drug sensitivity patterns with respect to predicted target gene, gene family, or pathway for each drug. […] To create a global view of overall sensitivity or resistance of each case, we generated a heatmap of binary sensitive/resistant calls for each sample to each drug.
Correlation of drug sensitivity with mutational events was performed by assessing the range of sensitivity of cases with mutation of an individual gene (as well as co-occurring mutational events) versus cases with wild type sequence for that same gene. […] The difference in average drug sensitivity of mutant versus wild type cases for each drug/mutation pair was plotted on the horizontal axis of a volcano plot with a test for statistical significance of the comparison plotted on the vertical axis (corrected for multiple comparison false discovery rate^42; FIG. 4). […] To aid in discovery of potential mutational biomarkers of drug sensitivity, we plotted volcano plots that were specific to each individual drug (versus all possible mutational events) and for each individual gene (versus all possible drugs tested).
Ex vivo drug screens were performed on freshly isolated mononuclear cells from AML samples as previously described^41.
Ex vivo functional drug screens were performed on freshly isolated mononuclear cells from AML samples. […] Drug plates were created using inhibitors purchased from LC Laboratories and Selleck Chemicals and master stocks were reconstituted in DMSO and stored at −80° C. […] DMSO control wells and positive control wells containing a drug combination of Flavopiridol, Staurosporine and Velcade were placed on each plate, with the final concentration of DMSO ≤0.1% in all wells. Daughter plates were created using a V&P Scientific 384-well pin tool head operated by the Caliper Sciclone ALH 3000 and equipped with 0.457 mm diameter, 30 nanoliter, slotted stainless steel pins (cat num: FP1NS30). Daughter and destination plates were sealed with pealable thermal seals using a PlateLoc thermal sealer. Destination plates were stored at −20° C. for no more than three months and thawed immediately before use. Primary mononuclear cells were plated across single-agent inhibitor panels within 24 h of collection. […] After 3 d of culture at 37° C. in 5% CO2, MTS reagent (CellTiter96 AQueous One; Promega) was added, optical density was measured at 490 nm, and raw absorbance values were adjusted to a reference blank value and then used to determine cell viability (normalized to untreated control wells).
A given sample was run on one or more panels and within each panel, the majority of drugs were run without within-panel replicates. […] An additional set of ‘curve-free’ AUCs was computed for sample-inhibitor pairs run on multiple panels.
Based on the methodology used in our prior drug combination study^36, a probit regression was fit to all possible run groups using the model: (normalized_viability/100)˜1+log 10(concentration) Where for all groups there were N=7 dose-response measurements. The summary measures of curve fit were inspected and cutoffs were devised removing all runs with an AIC >12 and deviance >2.

[1] = BCOR mutation alone or co-mutation of BCOR with DNMT3A or SRSF2

COc1cc2c(Oc3ccc(NC(=O)C4(C(=O)Nc5ccc(F)cc5)CC4)cc3F)ccnc2cc1OCCCN1CCOCC1 [Foretinib]
drug sensitivity mutant vs wild type (average difference in AUC; top left quadrant of volcano plot) (FLT3): Foretinib (XL880) | drug sensitivity mutant vs wild type (average difference in AUC; top left quadrant of volcano plot) (FLT3_ITD:TET2:DNMT3A): Foretinib | drug sensitivity mutant vs wild type (average difference in AUC; top left quadrant of volcano plot) (FLT3_ITD:WT1): foretinib | drug sensitivity mutant vs wild type (average difference in AUC; top left quadrant of volcano plot) (IDH2): Foretinib | drug sensitivity mutant vs wild type (average difference in AUC; top left quadrant of volcano plot) (NPM1): Foretinib | drug sensitivity mutant vs wild type (average difference in AUC; top left quadrant of volcano plot) (NPM1:DNMT3A): foretinib | drug sensitivity mutant vs wild type (average difference in AUC; top left quadrant of volcano plot) (NPM1:FLT3): Foretinib | drug sensitivity mutant vs wild type (average difference in AUC; top left quadrant of volcano plot) (NPM1:FLT3_ITD): foretinib | drug sensitivity mutant vs wild type (average difference in AUC; top left quadrant of volcano plot) (NPM1:FLT3_ITD:DNMT3A): foretinib | drug sensitivity mutant vs wild type (average difference in AUC; top left quadrant of volcano plot) (NPM1:SRSF2): Foretinib | drug sensitivity mutant vs wild type (average difference in AUC; top left quadrant of volcano plot) (SMC1A): foretinib

NC1(c2ccc(-c3nc4ccn5c(=O)[nH]nc5c4cc3-c3ccccc3)cc2)CCC1 [MK-2206]
drug sensitivity mutant vs wild type (average difference in AUC; top left quadrant of volcano plot) (WT1): MK-2206

CCCS(=O)(=O)Nc1ccc(F)c(C(=O)c2c[nH]c3ncc(Cl)cc23)c1F [PLX-4720, N-(3-(5-chloro-1H-pyrrolo[2,3-b]pyridine-3-carbonyl)-2,4-difluorophenyl)propane-1-sulfonamide]
drug sensitivity mutant vs wild type (average difference in AUC; top left quadrant of volcano plot) (CBFB.MYH11): PLX-4720

JAK Inhibitor I
sensitivity to JAK kinase inhibitors, mutant versus wild type (average AUC difference, one-way ANOVA) [1]: no difference in sensitivity | sensitivity to JAK kinase inhibitors, mutant versus wild type (average AUC difference, one-way ANOVA) (co-mutation of BCOR with RUNX1): increased sensitivity

CC(C)(C)c1cnc(CSc2cnc(NC(=O)C3CCNCC3)s2)o1 [SNS-032]
drug sensitivity mutant vs wild type (average difference in AUC; top left quadrant of volcano plot) (ASXL1): SNS-032 (BMS-387032) | drug sensitivity mutant vs wild type (average difference in AUC; top left quadrant of volcano plot) (NPM1): SNS-032

N#CCNC(=O)c1ccc(-c2ccnc(Nc3ccc(N4CCOCC4)cc3)n2)cc1 [cyt387]
sensitivity to JAK kinase inhibitors, mutant versus wild type (average AUC difference, one-way ANOVA) [1]: no difference in sensitivity | drug sensitivity mutant vs wild type (average difference in AUC; top left quadrant of volcano plot) (FLT3_ITD): cyt387 | drug sensitivity mutant vs wild type (average difference in AUC; top left quadrant of volcano plot) (NPM1:FLT3_ITD): cyt387 | sensitivity to JAK kinase inhibitors, mutant versus wild type (average AUC difference, one-way ANOVA) (co-mutation of BCOR with RUNX1): increased sensitivity

CC(C)(C)c1ccc(S(=O)(=O)/C=C/C#N)cc1 [Bay 11-7085]
drug sensitivity mutant vs wild type (average difference in AUC; top left quadrant of volcano plot) (SMC1A): Bay 11-

CNC(=O)c1cc(Oc2ccc(NC(=O)Nc3ccc(Cl)c(C(F)(F)F)c3)cc2)ccn1 [Sorafenib]
drug sensitivity mutant vs wild type (average difference in AUC; top left quadrant of volcano plot) (DNMT3A): Sorafenib | drug sensitivity mutant vs wild type (average difference in AUC; top left quadrant of volcano plot) (NPM1): Sorafenib | drug sensitivity mutant vs wild type (average difference in AUC; top left quadrant of volcano plot) (NPM1:DNMT3A): Sorafenib | drug sensitivity mutant vs wild type (average difference in AUC; top left quadrant of volcano plot) (NPM1:IDH2): sorafenib | drug sensitivity mutant vs wild type (average difference in AUC; top left quadrant of volcano plot) (NPM1:SRSF2): sorafenib | drug sensitivity mutant vs wild type (average difference in AUC; top left quadrant of volcano plot) (NPM1:TET2): Sorafenib

CN(C)CC[C@H](CSc1ccccc1)Nc1ccc(S(=O)(=O)NC(=O)c2ccc(N3CCN(Cc4ccccc4-c4ccc(Cl)cc4)CC3)cc2)cc1[N+](=O)[O-] [ABT-737]
drug sensitivity mutant vs wild type (average difference in AUC; top left quadrant of volcano plot) (PML.RARA): ABT-737

COc1cc2nccc(Oc3ccc(NC(=O)Nc4cc(C)on4)c(Cl)c3)c2cc1OC [Tivozanib]
drug sensitivity mutant vs wild type (average difference in AUC; top left quadrant of volcano plot) (CELSR2): Tivozanib (AV-951) | drug sensitivity mutant vs wild type (average difference in AUC; top left quadrant of volcano plot) (FLT3_ITD): tivozanib | drug sensitivity mutant vs wild type (average difference in AUC; top left quadrant of volcano plot) (NPM1): Tivozanib | drug sensitivity mutant vs wild type (average difference in AUC; top left quadrant of volcano plot) (NPM1:FLT3_ITD): Tivozanib | drug sensitivity mutant vs wild type (average difference in AUC; top left quadrant of volcano plot) (NPM1:FLT3_ITD:DNMT3A): tivozanib

CS(=O)(=O)CCNCc1ccc(-c2ccc3ncnc(Nc4ccc(OCc5cccc(F)c5)c(Cl)c4)c3c2)o1 [Lapatinib]
drug sensitivity mutant vs wild type (average difference in AUC; top left quadrant of volcano plot) (FLT3_ITD_IHD2): lapitinib | drug sensitivity mutant vs wild type (average difference in AUC; top left quadrant of volcano plot) (NPM1): Lapatinib | drug sensitivity mutant vs wild type (average difference in AUC; top left quadrant of volcano plot) (NPM1:FLT3_ITD): lapatinib | drug sensitivity mutant vs wild type (average difference in AUC; top left quadrant of volcano plot) (NPM1:IDH2): Lapatinib | drug sensitivity mutant vs wild type (average difference in AUC; top left quadrant of volcano plot) (NPM1:SRSF2): Lapatinib | drug sensitivity mutant vs wild type (average difference in AUC; top left quadrant of volcano plot) (SMC1A): lapatinib

CC1(COc2ccc3c(c2)ncn3-c2ccc3cccc(N4CCC(N)CC4)c3n2)COC1 [Crenolanib]
drug sensitivity mutant vs wild type (average difference in AUC; top left quadrant of volcano plot) (CBFB.MYH11): Crenolanib | drug sensitivity mutant vs wild type (average difference in AUC; top left quadrant of volcano plot) (DNMT3A:FLT3): Crenolanib | drug sensitivity mutant vs wild type (average difference in AUC; top left quadrant of volcano plot) (NPM1): crenolanib | drug sensitivity mutant vs wild type (average difference in AUC; top left quadrant of volcano plot) (NPM1:DNMT3A): Crenolanib

Cc1ccc(NC(=O)c2ccc(CN3CCN(C)CC3)cc2)cc1Nc1nc(-c2cccnc2)cs1 [Masitinib]
drug sensitivity mutant vs wild type (average difference in AUC; top left quadrant of volcano plot) (FLT3_ITD:TET2): masitinb | drug sensitivity mutant vs wild type (average difference in AUC; top left quadrant of volcano plot) (FLT3_ITD_IHD2): masitinib | drug sensitivity mutant vs wild type (average difference in AUC; top left quadrant of volcano plot) (IDH2): Masitinib | drug sensitivity mutant vs wild type (average difference in AUC; top left quadrant of volcano plot) (NPM1:SRSF2): Masitinb | drug sensitivity mutant vs wild type (average difference in AUC; top left quadrant of volcano plot) (SMC1A): Masitinib

O=c1[nH]c(-c2ccc(C(F)(F)F)cc2)nc2c1CSCC2 [XAV-939, 3,5,7,8-Tetrahydro-2-[4-(trifluoromethyl)phenyl]-4H-thiopyrano[4,3-d]pyrimidin-4-one]
drug sensitivity mutant vs wild type (average difference in AUC; top left quadrant of volcano plot) (BCOR): XAV-939 | drug sensitivity of mutant cases (BCOR mutation alone): did show sensitivity | drug sensitivity mutant vs wild type (average difference in AUC; top left quadrant of volcano plot) (BCOR:ASXL1): XAV-939 | drug sensitivity mutant vs wild type (average difference in AUC; top left quadrant of volcano plot) (BCOR:DNMT3A): XAV-939 | drug sensitivity mutant vs wild type (average difference in AUC; top left quadrant of volcano plot) (BCOR:SRSF2): XAV-939

Cn1c(=O)n(-c2ccc(C(C)(C)C#N)cc2)c2c3cc(-c4cnc5ccccc5c4)ccc3ncc21 [BEZ2345]
drug sensitivity mutant vs wild type (average difference in AUC; top left quadrant of volcano plot) (RUNX1): BEZ2345 | correlation of mutation with drug sensitivity: correlated with sensitivity

COc1cc2c(Oc3ccc4[nH]c(C)cc4c3F)ncnc2cc1OCCCN1CCCC1 [Cediranib]
drug sensitivity mutant vs wild type (average difference in AUC; top left quadrant of volcano plot) (FLT3_ITD:RUNX1): cediranib | drug sensitivity mutant vs wild type (average difference in AUC; top left quadrant of volcano plot) (RUNX1): Cediranib | drug sensitivity mutant vs wild type (average difference in AUC; top left quadrant of volcano plot) (U2AF1): Cediranib (AZD2171) | correlation of mutation with drug sensitivity: correlated with sensitivity
